This note sets out measurements from patent publication US11999746B2, “Compounds” (GlaxoSmithKline Intellectual Property Development Limited, priority 2014, dated 2024).

Experiment [1] concerns the target T1, recombinant human Lp-PLA2 (Homo sapiens, UniProt Q13093).
T1 sequence (Q13093 22-441): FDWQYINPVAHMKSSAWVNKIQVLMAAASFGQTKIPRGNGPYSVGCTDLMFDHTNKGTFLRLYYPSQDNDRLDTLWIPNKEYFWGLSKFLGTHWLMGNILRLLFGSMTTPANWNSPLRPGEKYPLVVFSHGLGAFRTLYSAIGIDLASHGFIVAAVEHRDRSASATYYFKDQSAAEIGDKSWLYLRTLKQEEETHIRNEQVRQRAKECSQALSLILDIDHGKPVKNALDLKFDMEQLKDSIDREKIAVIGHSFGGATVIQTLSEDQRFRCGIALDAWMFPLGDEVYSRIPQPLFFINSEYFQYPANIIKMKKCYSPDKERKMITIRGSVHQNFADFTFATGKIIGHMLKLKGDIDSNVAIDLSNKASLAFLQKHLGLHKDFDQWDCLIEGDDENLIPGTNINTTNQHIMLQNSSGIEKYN
Briefly: (1a) PED6 assay, recombinant human Lp-PLA2 (rhLp-PLA2). Type of experiment: biochemical. The note with it: Examples 1-167 and 413-430 were tested here, one experiment or average of multiple experiments, read-out: rhLp-PLA2 (pIC50) (converted). The method, boiled down:
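PED6 (2 μM final after 1:1 addition of 4 μM stock) cleavage by rhLp-PLA2 (4 nM working solution) in 50 mM HEPES pH 7.4, 150 mM NaCl, 1 mM CHAPS; compounds preincubated with enzyme 30 minutes, reaction 20 min at room temperature. Fluorescence at ex 480/em 540; pIC50 from curve fit.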

The target of the next experiment is T2, Lp-PLA2 in human plasma (Homo sapiens, UniProt Q13093).
T2 construct: from tissue; host or cells: pooled human plasma
T2 sequence (Q13093 22-441): T1 sequence (Q13093 22-441)
Description: (3a) Lp-PLA2 human plasma Thio-PAF assay. Type of experiment: biochemical. The note with it: (3a) Thio-PAF assay, pooled human plasma; Examples 1-265 and 413-430 were tested here; read-out: pIC50 in the Lp-PLA2 human plasma assay (converted). In outline:
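Pooled human plasma preincubated 30 min with serially diluted compound, then given 2-thio-PAF substrate with CPM and NEM in 50 mM HEPES pH 7.4, 150 mM NaCl, 1 mM CHAPS. Reaction quenched with TFA after 2 min; CPM thiol-adduct fluorescence read at ex 380/em 485 after 40 min; pIC50 reported.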

Molecules are shown by their SMILES.

`O=c1nc(OCc2cc(F)c(F)c(F)c2)cc2n1C[C@H]1COCCN21` [Example E116, (S)-7-((3,4,5-trifluorobenzyl)oxy)-3,4,11,11atetrahydropyrimido[6′,1′:2,3]imidazo[5,1-c][1,4] oxazin-9(1H)-one]: the IC50 (in experiment [1]; at Lp-PLA2 in human plasma) was ≤ 100 nM each time.

For the compound `CN1CCN2c3cc(OCc4cc(F)c(Oc5ccnc(C(F)(F)F)c5)c(F)c4)nc(=O)n3CC2C1` (stereo not shown) [Example E166, 7-((3,5-Difluoro-4-((2-(trifluoromethyl)pyridin-4-yl)oxy)benzyl)oxy)-2-methyl-3,4,11,11a-tetrahydro-1H-pyrazino[1′,2′:3,4]imidazo[1,2-c]pyrimidin-9(2H)-one], the IC50 in experiment [1] is ≤ 1 nM; at Lp-PLA2 in human plasma it was ≤ 100 nM.

As to `O=c1nc(OCc2cccc(F)c2F)cc2n1C[C@@H]1CCCCN21` [Example E58, (S)-3-((2,3-Difluorobenzyl)oxy)-6,7,8,9,9a,10-hexahydro-1H-pyrido[1′,2′:3,4]imidazo[1,2-c] pyrimidin-1-one], the IC50 in experiment [1] is ≤ 100 nM; at Lp-PLA2 in human plasma it was ≤ 10000 nM.

For the compound `N#Cc1cc(Oc2ccc(COc3cc4n(c(=O)n3)CC3CCCCN43)cc2F)cc(C(F)(F)F)c1` (stereo not shown) [Example E28, 3-(2-Fluoro-4-(((1-oxo-6,7,8,9,9a,10-hexahydro-1H-pyrido[1′,2′:3,4]imidazo[1,2-c]pyrimidin-3-yl)oxy)methyl)phenoxy)-5-(trifluoromethyl)benzonitrile], the IC50 in experiment [1] was ≤ 1 nM; on Lp-PLA2 in human plasma, ≤ 100 nM.

Take `O=c1nc(OCc2ccc(F)cc2)cc2n1C[C@@H]1CCCCN21` [Example E34, (S)-3-((4-Fluorobenzyl)oxy)-6,7,8,9,9a,10-hexahydro-1H-pyrido[1′,2′:3,4]imidazo-[1,2-c] pyrimidin-1-one]: the IC50 in experiment [1] was ≤ 100 nM; on Lp-PLA2 in human plasma it was ≤ 10000 nM.

Consider `O=c1nc(OCc2ccc(Cl)c(F)c2)cc2n1C[C@H]1COCN21` [Example E145, (S)-6-((4-chloro-3-fluorobenzyl)oxy)-10,10a-dihydro-1H-oxazolo[3′,4′:3,4]imidazo[1,2-c] pyrimidin-8(3H)-one], for which the results for the IC50 (in experiment [1]; on Lp-PLA2 in human plasma) were ≤ 100 nM and ≤ 10000 nM, respectively.

Regarding `CCn1cc(Oc2c(F)cc(COc3cc4n(c(=O)n3)C[C@H]3COCCN43)cc2F)cn1` [Example E115, (S)-7-((4-((1-ethyl-1H-pyrazol-4-yl)oxy)-3,5-difluorobenzyl)oxy)-3,4,11,11a-tetrahydropyrimido[6′,1′:2,3]imidazo[5,1-c][1,4]oxazin-9(1H)-one], the IC50 is 1 nM in experiment [1] and ≤ 100 nM at Lp-PLA2 in human plasma.

For `O=c1nc(OCc2cc(F)c(Oc3ccnc(C(F)(F)F)c3)c(F)c2)cc2n1C[C@H]1COCCN21` [Example E113, (S)-7-((3,5-difluoro-4-((2-(trifluoromethyl)pyridin-4-yl)oxy)benzyl)oxy)-3,4, 11, 11a tetrahydropyrimido[6′,1′:2,3]imidazo[5,1-c][1,4]oxazin-9(1H)-one], the figures for the IC50 (in experiment [1]; at Lp-PLA2 in human plasma) were 0.0316 nM and ≤ 100 nM, respectively.

Consider `O=c1nc(OCc2cc(F)c(Oc3ccnc(C(F)(F)F)c3)c(F)c2)cc2n1CC1CCCCN21` (stereo not shown) [Example E45, 3-((3,5-Difluoro-4-((2-(trifluoromethyl)pyridin-4-yl)oxy)benzyl)oxy)-6,7,8,9,9a,10-hexahydro-1H-pyrido[1′,2′:3,4]imidazo[1,2-c]pyrimidin-1-one], for which the IC50 was ≤ 1 nM in experiment [1] and ≤ 100 nM at Lp-PLA2 in human plasma.

As for `O=c1nc(OCc2cc(F)c(Oc3ccnc(C(F)(F)F)c3)c(F)c2)cc2n1CC1COCCN21` (stereo not shown) [Example E107, 7-((3,5-Difluoro-4-((2-(trifluoromethyl)pyridin-4-yl)oxy)benzyl)oxy)-3,4, 11, 11a-tetra hydropyrimido[6′,1′:2,3]imidazo[5,1-c][1,4]oxazin-9(1H)-one], the IC50 is 0.0398 nM in experiment [1] and ≤ 100 nM on Lp-PLA2 in human plasma.

For the compound `O=c1nc(OCc2cccc(F)c2)cc2n1C[C@H]1COCCN21` [Example E128, (S)-7-((3-fluorobenzyl)oxy)-3,4,11,11a-tetrahydropyrimido[6′,1′:2,3]imidazo[5,1-c][1,4] oxazin-9(1H)-one], the results for the IC50 (in experiment [1]; on Lp-PLA2 in human plasma) were 10 nM and ≤ 100 nM, respectively.

Consider `O=c1nc(OCc2cc(F)c(OC3CN(CCC(F)(F)F)C3)c(F)c2)cc2n1CC1CCCN21` (stereo not shown) [Example E96, 3-((3,5-Difluoro-4-((1-(3,3,3-trifluoropropyl)azetidin-3-yl)oxy)benzyl)oxy)-7,8,8a,9-tetrahy dropyrrolo[1′,2′:3,4]imidazo[1,2-c]pyrimidin-1(6H)-one], for which the results for the IC50 (in experiment [1]; on Lp-PLA2 in human plasma) were ≤ 100 nM and ≤ 10000 nM, respectively.

As for `O=c1nc(OCc2cc(F)c(CCCF)c(F)c2)cc2n1CC1CCCN21` (stereo not shown) [Example E99, 3-((3,5-Difluoro-4-(3-fluoropropyl)benzyl)oxy)-7,8,8a,9-tetrahydropyrrolo[1′,2′:3,4] imidazo[1,2-c]pyrimidin-1(6H)-one], the IC50 in experiment [1] is ≤ 100 nM; at Lp-PLA2 in human plasma, ≤ 10000 nM.

Consider `O=c1nc(OCc2cc(F)c(Oc3ccc(C(F)(F)F)nc3)c(F)c2)cc2n1CC1CCCN21` (stereo not shown) [Example E78, 3-((3,5-Difluoro-4-((6-(trifluoromethyl)pyridin-3-yl)oxy)benzyl)oxy)-7,8,8a,9-tetrahydro pyrrolo[1′,2′:3,4]imidazo[1,2-c]pyrimidin-1(6H)-one], for which the results for the IC50 (in experiment [1]; on Lp-PLA2 in human plasma) were ≤ 1 nM and ≤ 100 nM, respectively.

On to `O=c1nc(OCc2cc(F)c(F)c(F)c2)cc2n1C[C@@H]1CCCCN21` [Example E32, (S)-3-((3,4,5-Trifluorobenzyl)oxy)-6,7,8,9,9a,10-hexahydro-1H-pyrido[1′,2′:3,4]imidazo[1,2-c]pyrimidin-1-one], for which the IC50 in experiment [1] was ≤ 100 nM; on Lp-PLA2 in human plasma, ≤ 10000 nM.

With `O=c1nc(OCc2cc(F)c(F)c(F)c2)cc2n1C[C@@H]1CCOCN21` [Example E139, (S)-3-((3,4,5-trifluorobenzyl)oxy)-8,9,9a,10-tetrahydropyrimido[6′,1′:2,3]imidazo[1,5-c][1,3] oxazin-1(6H)-one], the IC50 (in experiment [1]; on Lp-PLA2 in human plasma) was ≤ 100 nM in each case.

As for `O=c1nc(OCc2cc(F)c(Oc3cccc(C(F)(F)F)c3)c(F)c2)cc2n1CC1CCCN21` (stereo not shown) [Example E81, 3-((3,5-difluoro-4-(3-(trifluoromethyl)phenoxy)benzyl)oxy)-7,8,8a,9-tetrahydropyrrolo[1′,2′:3, 4]imidazo[1,2-c]pyrimidin-1(6H)-one], the IC50 is ≤ 1 nM in experiment [1] and ≤ 100 nM on Lp-PLA2 in human plasma.

Regarding `O=c1nc(OCc2cc(F)c(OC3CCC(F)(F)C3)c(F)c2)cc2n1CC1CCCN21` (stereo not shown) [Example E94, 3-((4-((3,3-difluorocyclopentyl)oxy)-3,5-difluorobenzyl)oxy)-7,8,8a,9-tetrahydropyrrolo[1′,2′:3,4]imidazo[1,2-c]pyrimidin-1(6H)-one], the values for the IC50 (in experiment [1]; on Lp-PLA2 in human plasma) were ≤ 100 nM and ≤ 10000 nM, respectively.

As for `N#Cc1cc(COc2cc3n(c(=O)n2)CC2CCCCN32)ccc1Oc1cncc(C(F)(F)F)c1` (stereo not shown) [Example E10, 5-(((1-Oxo-6,7,8,9,9a,10-hexahydro-1H-pyrido[1′,2′:3,4]imidazo[1,2-c]pyrimidin-3-yl)oxy)methyl)-2-((5-(trifluoromethyl)pyridin-3-yl)oxy)benzonitrile], the IC50 in experiment [1] is ≤ 1 nM; at Lp-PLA2 in human plasma, ≤ 100 nM.

For `O=c1nc(OCc2ccc(F)cc2F)cc2n1C[C@@H]1COCCN21` [Example E130, (R)-7-((2,4-difluorobenzyl)oxy)-3,4,11,11a-tetrahydropyrimido[6′,1′:2,3]imidazo[5,1-c][1,4] oxazin-9(1H)-one], the results for the IC50 (in experiment [1]; at Lp-PLA2 in human plasma) were ≤ 100 nM and ≤ 10000 nM, respectively.

For the compound `O=c1nc(OCc2cc(F)c(F)c(F)c2)cc2n1C[C@H]1CCCN21` [Example E70, (R)-3-((3,4,5-trifluorobenzyl)oxy)-7,8,8a,9-tetrahydropyrrolo[1′,2′:3,4]imidazo[1,2-c] pyrimidin-1(6H)-one], the IC50 (in experiment [1]; at Lp-PLA2 in human plasma) was ≤ 100 nM throughout.

Take `O=c1nc(OCc2cc(F)c(F)c(F)c2)cc2n1C[C@@H]1COCCN21` [Example E123, (R)-7-((3,4,5-trifluorobenzyl)oxy)-3,4,11,11atetrahydropyrimido[6′,1′:2,3]imidazo[5,1-c][1,4] oxazin-9(1H)-one]: the IC50 in experiment [1] is ≤ 100 nM; on Lp-PLA2 in human plasma it was ≤ 10000 nM.

On to `O=c1nc(OCc2cc(F)c(OC3(CCF)CC3)c(F)c2)cc2n1C[C@H]1CCCCN21` [Example E62, (R)-3-((3,5-Difluoro-4-(1-(2-fluoroethyl)cyclopropoxy)benzyl)oxy)-6,7,8,9,9a,10-hexahydro-1H-pyrido[1′,2′:3,4]imidazo[1,2-c]pyrimidin-1-one], for which the figures for the IC50 (in experiment [1]; at Lp-PLA2 in human plasma) were ≤ 100 nM and ≤ 10000 nM, respectively.
